Laboratory results reported in patent publication US20230295119A1, “SUBSTITUTED PYRIDINES FOR THE TREATMENT OF INFLAMMATORY DISEASES” (GOSSAMER BIO SERVICES, INC., priority 2020, published 2023).
pIC50: −log10 of the molar value.

Assays:
[1] = target: TYK2 JH2 domain (Homo sapiens (Human), UniProt P29597); test: TYK2 JH2 NanoBRET assay; format: binding; conditions: Table 20, read-out: TYK2 IC50
Procedure, shortened: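 Tracer displacement measured by BRET ratio (acceptor over donor) in live HEK293T cells transfected with a NanoLuc-tagged TYK2 JH2 construct; cells co-exposed to test compound and 0.5 µM final K10 tracer for 2 h before substrate/extracellular inhibitor addition.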

[2] = target: human JAK3 (Homo sapiens (Human), UniProt P52333); test: JAK3 TR-FRET kinase assay; format: biochemical; conditions: JAK3 0.0125 nM
[3] = target: human JAK2 (Homo sapiens (Human), UniProt O60674); test: JAK2 TR-FRET kinase assay; format: biochemical; conditions: JAK2 0.025 nM
[4] = target: human JAK1 (Homo sapiens (Human), UniProt P23458); test: JAK1 TR-FRET kinase assay; format: biochemical; conditions: TR-FRET, JAK1 2.5 nM
human JAK1, sequence (P23458 whole entry): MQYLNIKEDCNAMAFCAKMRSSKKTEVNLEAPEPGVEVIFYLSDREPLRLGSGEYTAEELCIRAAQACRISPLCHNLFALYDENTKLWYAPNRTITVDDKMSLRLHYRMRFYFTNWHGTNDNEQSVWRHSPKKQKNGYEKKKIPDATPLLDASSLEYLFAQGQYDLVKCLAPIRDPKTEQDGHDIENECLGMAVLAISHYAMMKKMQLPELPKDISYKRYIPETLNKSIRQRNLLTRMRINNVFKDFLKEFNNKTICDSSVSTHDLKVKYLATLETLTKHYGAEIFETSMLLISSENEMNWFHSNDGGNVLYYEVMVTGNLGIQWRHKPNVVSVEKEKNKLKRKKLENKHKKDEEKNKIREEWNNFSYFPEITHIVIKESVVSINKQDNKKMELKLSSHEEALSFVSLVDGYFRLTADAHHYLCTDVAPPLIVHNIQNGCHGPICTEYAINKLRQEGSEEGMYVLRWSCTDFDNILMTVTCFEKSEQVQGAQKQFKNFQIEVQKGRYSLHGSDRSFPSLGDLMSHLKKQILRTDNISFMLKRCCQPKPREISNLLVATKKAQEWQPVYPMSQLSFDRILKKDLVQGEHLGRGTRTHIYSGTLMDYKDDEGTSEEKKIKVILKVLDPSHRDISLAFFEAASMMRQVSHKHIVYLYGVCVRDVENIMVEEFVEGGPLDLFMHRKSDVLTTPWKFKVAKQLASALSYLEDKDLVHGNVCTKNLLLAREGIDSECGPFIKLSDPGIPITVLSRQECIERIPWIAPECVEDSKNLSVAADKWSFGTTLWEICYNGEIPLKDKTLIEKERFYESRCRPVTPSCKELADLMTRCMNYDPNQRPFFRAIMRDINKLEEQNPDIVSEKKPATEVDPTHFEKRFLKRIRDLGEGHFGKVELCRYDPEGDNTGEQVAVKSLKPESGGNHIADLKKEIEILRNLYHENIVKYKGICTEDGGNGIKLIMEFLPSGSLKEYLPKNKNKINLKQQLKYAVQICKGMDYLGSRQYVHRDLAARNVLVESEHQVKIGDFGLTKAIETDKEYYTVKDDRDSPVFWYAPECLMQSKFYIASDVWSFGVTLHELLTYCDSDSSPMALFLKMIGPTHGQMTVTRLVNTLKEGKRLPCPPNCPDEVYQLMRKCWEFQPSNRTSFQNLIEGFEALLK

human JAK3, sequence (P52333 whole entry): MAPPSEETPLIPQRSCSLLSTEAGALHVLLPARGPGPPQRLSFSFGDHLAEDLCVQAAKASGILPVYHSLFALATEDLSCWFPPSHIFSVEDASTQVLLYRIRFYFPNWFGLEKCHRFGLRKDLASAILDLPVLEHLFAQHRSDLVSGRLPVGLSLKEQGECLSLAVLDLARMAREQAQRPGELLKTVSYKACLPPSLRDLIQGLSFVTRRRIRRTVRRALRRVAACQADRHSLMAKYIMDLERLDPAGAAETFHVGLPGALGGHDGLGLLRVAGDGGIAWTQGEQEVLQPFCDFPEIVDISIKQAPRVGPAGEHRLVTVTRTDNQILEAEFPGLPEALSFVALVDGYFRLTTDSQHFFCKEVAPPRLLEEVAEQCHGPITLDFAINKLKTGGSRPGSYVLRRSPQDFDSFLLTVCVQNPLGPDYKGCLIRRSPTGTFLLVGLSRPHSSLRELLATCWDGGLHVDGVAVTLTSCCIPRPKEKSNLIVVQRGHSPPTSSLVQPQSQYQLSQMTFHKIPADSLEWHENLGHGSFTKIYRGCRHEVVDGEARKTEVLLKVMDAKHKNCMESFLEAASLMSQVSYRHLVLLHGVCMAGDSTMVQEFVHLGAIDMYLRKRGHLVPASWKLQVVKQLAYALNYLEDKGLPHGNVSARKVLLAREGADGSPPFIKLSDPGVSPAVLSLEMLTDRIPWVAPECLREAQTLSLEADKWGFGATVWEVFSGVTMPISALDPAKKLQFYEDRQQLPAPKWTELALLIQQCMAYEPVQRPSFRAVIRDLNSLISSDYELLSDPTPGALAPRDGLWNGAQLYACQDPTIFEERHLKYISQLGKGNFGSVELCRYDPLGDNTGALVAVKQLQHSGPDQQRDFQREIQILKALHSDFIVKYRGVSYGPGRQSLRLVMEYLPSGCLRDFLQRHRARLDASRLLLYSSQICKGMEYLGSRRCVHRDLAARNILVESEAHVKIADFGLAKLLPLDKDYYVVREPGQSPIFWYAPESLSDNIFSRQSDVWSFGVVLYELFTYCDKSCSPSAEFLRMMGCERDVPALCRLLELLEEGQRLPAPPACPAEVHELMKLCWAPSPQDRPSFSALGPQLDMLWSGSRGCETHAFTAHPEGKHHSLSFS
TYK2 JH2 domain, sequence (P29597 589-875): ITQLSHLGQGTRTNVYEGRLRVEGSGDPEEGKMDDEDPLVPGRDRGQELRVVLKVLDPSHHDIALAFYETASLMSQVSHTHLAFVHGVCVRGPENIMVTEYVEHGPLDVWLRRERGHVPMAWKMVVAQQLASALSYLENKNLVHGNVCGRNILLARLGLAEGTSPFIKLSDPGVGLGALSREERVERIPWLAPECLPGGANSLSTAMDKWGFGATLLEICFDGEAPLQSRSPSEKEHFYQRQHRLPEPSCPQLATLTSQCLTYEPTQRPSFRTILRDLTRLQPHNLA
human JAK2, sequence (O60674 whole entry): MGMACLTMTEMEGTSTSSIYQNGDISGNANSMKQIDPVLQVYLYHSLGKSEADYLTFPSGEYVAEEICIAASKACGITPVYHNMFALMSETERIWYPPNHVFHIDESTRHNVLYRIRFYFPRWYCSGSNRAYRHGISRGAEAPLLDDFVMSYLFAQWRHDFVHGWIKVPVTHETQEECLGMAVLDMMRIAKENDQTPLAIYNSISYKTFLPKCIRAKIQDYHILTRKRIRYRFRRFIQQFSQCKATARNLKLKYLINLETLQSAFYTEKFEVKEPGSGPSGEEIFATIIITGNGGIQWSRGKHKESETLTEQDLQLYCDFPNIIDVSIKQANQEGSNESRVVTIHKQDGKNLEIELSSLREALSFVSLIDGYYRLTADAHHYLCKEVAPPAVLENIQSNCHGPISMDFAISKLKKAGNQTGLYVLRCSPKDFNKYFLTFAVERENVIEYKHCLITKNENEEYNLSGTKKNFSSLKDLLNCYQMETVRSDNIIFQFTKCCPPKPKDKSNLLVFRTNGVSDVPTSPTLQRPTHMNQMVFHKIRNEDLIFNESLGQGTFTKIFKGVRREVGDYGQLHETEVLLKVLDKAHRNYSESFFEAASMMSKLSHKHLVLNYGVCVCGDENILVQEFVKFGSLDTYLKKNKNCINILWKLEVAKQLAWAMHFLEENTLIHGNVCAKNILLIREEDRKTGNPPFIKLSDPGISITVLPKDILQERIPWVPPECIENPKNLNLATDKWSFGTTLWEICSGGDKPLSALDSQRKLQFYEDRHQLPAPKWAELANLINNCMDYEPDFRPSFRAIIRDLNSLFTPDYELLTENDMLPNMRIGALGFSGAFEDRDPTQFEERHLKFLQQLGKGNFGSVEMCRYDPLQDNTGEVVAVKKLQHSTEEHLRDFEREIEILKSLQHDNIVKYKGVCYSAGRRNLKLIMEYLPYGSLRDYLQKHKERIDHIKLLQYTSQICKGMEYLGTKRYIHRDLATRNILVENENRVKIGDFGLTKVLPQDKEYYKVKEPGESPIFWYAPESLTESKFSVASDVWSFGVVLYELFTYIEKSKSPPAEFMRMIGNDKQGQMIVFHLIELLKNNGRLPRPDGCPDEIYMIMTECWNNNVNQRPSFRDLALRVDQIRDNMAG

SMILES | pIC50 [1] | pIC50 [2] | pIC50 [3] | pIC50 [4]
CCC(=O)c1cnc(NC(=O)C2CC2c2ccccn2)cc1Nc1cccc(-c2ncn(C)n2)c1OC (centres unmarked) [Compound 22B] | 6.30 to 7.30 | ≤ 6.30 | ≤ 6.30 | ≤ 6.30
CCC(=O)c1cnc(NC(=O)CCNC)cc1Nc1cccc(-c2ncn(C)n2)c1OC [Compound 23H] | 6.30 to 7.30 | ≤ 6.30 | ≤ 6.30 | ≤ 6.30
CCC(=O)c1cnc(Nc2ccc(O[C@H]3CCN(C)C3)nn2)cc1Nc1cccc(-c2ncn(C)n2)c1OC [Compound 18GG] | 7.30 to 8.30 | ≤ 6.30 | ≤ 6.30 | ≤ 6.30
CCC(=O)c1cnc(Nc2cnc(CNC)cn2)cc1Nc1cccc(-c2ncn(C)n2)c1OC [Compound 9RRR] | > 8.30 | ≤ 6.30 | ≤ 6.30 | ≤ 6.30
CCC(=O)c1cnc(Nc2ccc(CNC)cn2)cc1Nc1cccc(-c2ncn(C)n2)c1OC [Compound 9C] | > 8.30 | ≤ 6.30 | ≤ 6.30 | ≤ 6.30
CCC(=O)c1cnc(Nc2ccc(CN(C)C)cn2)cc1Nc1cc(F)cc(-c2ncn(C)n2)c1OC [Compound 9E] | > 8.30 | ≤ 6.30 | ≤ 6.30 | ≤ 6.30
CCC(=O)c1cnc(Nc2ccn([C@H]3C[C@@H](OC)C3)n2)cc1Nc1cccc(-c2ncn(C)n2)c1OC [Compound 21A, 1-(4-((2-methoxy-3-(1-methyl-1H-1,2,4-triazol-3-yl)phenyl)amino)-6-((1-(3-methoxycyclobutyl)-1H-pyrazol-3-yl)amino)pyridin-3-yl)propan-1-one] | 7.30 to 8.30 | ≤ 6.30 | ≤ 6.30 | ≤ 6.30
COc1c(Nc2cc(Nc3ccc(OCCO)cn3)ncc2C(=O)C2CC2)cccc1-c1ncn(C)n1 [Compound 18B] | > 8.30 | ≤ 6.30 | ≤ 6.30 | ≤ 6.30
CCC(=O)c1cnc(Nc2cc(C(F)(F)F)c(CN(C)C)cn2)cc1Nc1cccc(-c2ncn(C)n2)c1OC [Compound 9SSSS] | 7.30 to 8.30 | ≤ 6.30 | ≤ 6.30 | ≤ 6.30
CCC(=O)c1cnc(Nc2ccc(O[C@@H]3CCOC3)c(C)n2)cc1Nc1cccc(-c2ncn(C)n2)c1OC [Compound 18AAAA] | > 8.30 | 6.30 to 7.30 | 6.30 to 7.30 | ≤ 6.30
CCC(=O)c1cnc(NC(=O)CCc2cnn(C)c2)cc1Nc1cccc(-c2ncn(C)n2)c1OC [Compound 23F] | 6.30 to 7.30 | ≤ 6.30 | ≤ 6.30 | ≤ 6.30
CCC(=O)c1cnc(Nc2ccc(P(C)(C)=O)cn2)cc1Nc1cccc(-c2ncn(C)n2)c1OC [Compound 15DD] | 7.30 to 8.30 | ≤ 6.30 | ≤ 6.30 | ≤ 6.30
CCC(=O)c1cnc(Nc2ccc(CN(C)CC)cn2)cc1Nc1cccc(-c2ncn(C)n2)c1OC [Compound 9U] | > 8.30 | ≤ 6.30 | ≤ 6.30 | ≤ 6.30
CCC(=O)c1cnc(Nc2ccc(S(C)(=O)=O)cn2)cc1Nc1cccc(C(C)O)c1OC (centres unmarked) [Compound 13Q] | 7.30 to 8.30 | ≤ 6.30 | ≤ 6.30 | ≤ 6.30
CCC(=O)c1cnc(NC(=O)C2CC2)cc1Nc1cc(COC)cc(-c2ncn(C)n2)c1OC [Compound 25E] | 6.30 to 7.30 | ≤ 6.30 | ≤ 6.30 | ≤ 6.30
CCC(=O)c1cnc(Nc2cc(OC)n(CCOC)n2)cc1Nc1cccc(-c2ncn(C)n2)c1OC [Compound 21Y] | 7.30 to 8.30 | 6.30 to 7.30 | 6.30 to 7.30 | ≤ 6.30
CCC(=O)c1cnc(Nc2ccc(CN3CCS(=O)(=O)CC3)cn2)cc1Nc1cccc(-c2ncn(C)n2)c1OC [Compound 9VV] | > 8.30 | 6.30 to 7.30 | 6.30 to 7.30 | ≤ 6.30
CCO[C@H]1C[C@@H](n2ccc(Nc3cc(Nc4cccc(-c5ncn(C)n5)c4OC)c(C(=O)CC)cn3)n2)C1 [Compound 21CC] | 7.30 to 8.30 | ≤ 6.30 | ≤ 6.30 | ≤ 6.30
CCC(=O)c1cnc(Nc2ccc(CN(C)C3CC3)cn2)cc1Nc1cccc(-c2ncn(C)n2)c1OC [Compound 9R] | 7.30 to 8.30 | ≤ 6.30 | ≤ 6.30 | ≤ 6.30
CCC(=O)c1cnc(NC(=O)CC2(O)CC2)cc1Nc1cccc(-c2ncn(C)n2)c1OC [Compound 23C] | 6.30 to 7.30 | ≤ 6.30 | ≤ 6.30 | ≤ 6.30
CCC(=O)c1cnc(Nc2cnc(CN3CCCC3)cn2)cc1Nc1cccc(-c2ncn(C)n2)c1OC [Compound 9AAAA] | > 8.30 | ≤ 6.30 | ≤ 6.30 | ≤ 6.30
CCC(=O)c1cnc(Nc2ccc(CN3CC[C@H](F)C3)cn2)cc1Nc1cccc(-c2ncn(C)n2)c1OC [Compound 9KK] | > 8.30 | ≤ 6.30 | ≤ 6.30 | ≤ 6.30

SMILES | pIC50 [1] | pIC50 [2] | pIC50 [3] | pIC50 [4]
CCC(=O)c1cnc(Nc2ccc(O[C@H]3CN(C)C[C@@H]3O)cn2)cc1Nc1cccc(-c2ncn(C)n2)c1OC [Compound 18S] | 7.30 to 8.30 | 6.30 to 7.30 | ≤ 6.30 | ≤ 6.30
CCC(=O)c1cnc(NC(=O)[C@@H]2C[C@@H]2NC(=O)OC(C)(C)C)cc1Nc1cccc(-c2ncn(C)n2)c1OC [Compound 22J] | ≤ 6.30 | ≤ 6.30 | ≤ 6.30 | ≤ 6.30
CCC(=O)c1cnc(Nc2cnc(OCCN3CC(F)(F)C3)cn2)cc1Nc1cccc(-c2ncn(C)n2)c1OC [Compound 18QQ] | 7.30 to 8.30 | ≤ 6.30 | ≤ 6.30 | ≤ 6.30
CCC(=O)c1cnc(Nc2ncc(-n3ccccc3=O)cc2F)cc1Nc1cccc(-c2ncn(C)n2)c1OC [Compound 15AA] | 6.30 to 7.30 | ≤ 6.30 | ≤ 6.30 | ≤ 6.30
CCC(=O)c1cnc(Nc2cnc(OCCN3CCCC3)cn2)cc1Nc1cccc(-c2ncn(C)n2)c1OC [Compound 18VV] | > 8.30 | ≤ 6.30 | ≤ 6.30 | ≤ 6.30
COc1c(-c2ncn(C)n2)ccnc1Nc1cc(Nc2ccc(-c3cn(C)cn3)cn2)ncc1C(=O)C1CC1 [Compound 15L] | 7.30 to 8.30 | ≤ 6.30 | ≤ 6.30 | ≤ 6.30
CCC(=O)c1cnc(Nc2ncc(S(C)(=O)=O)cc2F)cc1Nc1cccc(-c2ncn(C)n2)c1OC [Compound 13Z] | 6.30 to 7.30 | ≤ 6.30 | ≤ 6.30 | ≤ 6.30
CCC(=O)c1cnc(Nc2ccc(CN3CCCC3)nn2)cc1Nc1cccc(-c2ncn(C)n2)c1OC [Compound 9OOO] | 7.30 to 8.30 | ≤ 6.30 | ≤ 6.30 | ≤ 6.30
CCC(=O)c1cnc(Nc2ccc(C(C)(C)N(C)C)cn2)cc1Nc1cccc(-c2ncn(C)n2)c1OC [Compound 9N] | > 8.30 | ≤ 6.30 | ≤ 6.30 | ≤ 6.30
CCC(=O)c1cnc(NC(=O)[C@@H]2C[C@H]2NC(=O)OC(C)(C)C)cc1Nc1cccc(-c2ncn(C)n2)c1OC [Compound 22H] | ≤ 6.30 | ≤ 6.30 | ≤ 6.30 | ≤ 6.30
CCC(=O)c1cnc(Nc2ccc(OC3CCN(C)CC3)cn2)cc1Nc1cccc(-c2ncn(C)n2)c1OC [Compound 18Y] | > 8.30 | 6.30 to 7.30 | 6.30 to 7.30 | ≤ 6.30
CCC(=O)c1cnc(Nc2cccc(C(=O)O)n2)cc1Nc1cccc(-c2ncn(C)n2)c1OC [Compound 8I] | ≤ 6.30 | ≤ 6.30 | ≤ 6.30 | ≤ 6.30
CCC(=O)c1cnc(Nc2ccn(CC3CCOC3)n2)cc1Nc1cccc(-c2ncn(C)n2)c1OC (centres unmarked) [Compound 21T] | 7.30 to 8.30 | ≤ 6.30 | ≤ 6.30 | ≤ 6.30
COc1c(Nc2cc(Nc3ccc(-c4cn(C)cn4)cn3)ncc2C(=O)C2CC2)cccc1-c1ncn(C)n1 [Compound 15K] | 7.30 to 8.30 | ≤ 6.30 | ≤ 6.30 | ≤ 6.30
CCC(=O)c1cnc(Nc2cccc(C(N)=O)n2)cc1Nc1cccc(-c2ncn(C)n2)c1OC [Compound 8J] | > 8.30 | ≤ 6.30 | ≤ 6.30 | ≤ 6.30
CCC(=O)c1cnc(Nc2ccc(CN(C)CC(F)(F)F)cn2)cc1Nc1cccc(-c2ncn(C)n2)c1OC [Compound 9X] | 7.30 to 8.30 | ≤ 6.30 | ≤ 6.30 | ≤ 6.30
CCC(=O)c1cnc(NC(=O)C2CC2c2ccn(C)n2)cc1Nc1cccc(-c2ncn(C)n2)c1OC (centres unmarked) [Compound 22M] | 6.30 to 7.30 | ≤ 6.30 | ≤ 6.30 | ≤ 6.30
CCC(=O)c1cnc(NC(=O)C2CC2)cc1Nc1cc(CN(C)C)cc(-c2ncn(C)n2)c1OC [Compound 25C] | ≤ 6.30 | ≤ 6.30 | ≤ 6.30 | ≤ 6.30
CCC(=O)c1cnc(Nc2ccc(C(C)(C)NC)nn2)cc1Nc1cccc(-c2ncn(C)n2)c1OC [Compound 9MMM] | 7.30 to 8.30 | ≤ 6.30 | ≤ 6.30 | ≤ 6.30
CCC(=O)c1cnc(Nc2ccc(-n3ccncc3=O)cn2)cc1Nc1cccc(-c2ncn(C)n2)c1OC [Compound 15V] | > 8.30 | ≤ 6.30 | ≤ 6.30 | ≤ 6.30
CCC(=O)c1cnc(NC(=O)[C@@H]2C[C@H]2CN(C)C)cc1Nc1cccc(-c2ncn(C)n2)c1OC [Compound 22D] | 7.30 to 8.30 | ≤ 6.30 | ≤ 6.30 | ≤ 6.30
CCC(=O)c1cnc(Nc2ccc(S(C)(=O)=O)cn2)cc1Nc1cccc(COC)c1OC [Compound 13R] | 7.30 to 8.30 | ≤ 6.30 | ≤ 6.30 | ≤ 6.30
